Test results published in US20160257697A1, “THIOPHENE-SUBSTITUTED TETRACYCLIC COMPOUNDS AND METHODS OFUSE THEREOF FOR THE TREATMENT OF VIRAL DISEASES” (priority 2013, published 2016).
Like-named read-outs stand apart in the source and are kept apart here.

Experiments:
Test in all cases: microbe, parasite or virus in culture
Format in all cases: cell-based, Hepatitis C virus (HCV)
[1] = tested on: HCV replicon 2B; conditions: Replicon Assay A
How it was run: (§1)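 Cells seeded 2000/well + compound; 0.5% DMSO, 5% FBS; harvest day 3, lyse. Multiplex TaqMan RT-PCR for replicon (Neo probe) and cyclophilin RNA; amounts from Ct vs log(ng) linear regression of replicon total RNA standards.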

[2] = tested on: HCV replicon 1A; conditions: Replicon Assay A
How it was run: as §1

[3] = tested on: HCV replicon 1AY93H; conditions: Replicon Assay A
How it was run: as §1

[4] = tested on: HCV replicon 1B; conditions: Replicon Assay B
[5] = tested on: HCV replicon 1AQ30D; conditions: Replicon Assay B
[6] = read-out: 2B IC50, HCV replicon 2B
[7] = read-out: 1A Y93H IC50, HCV replicon 1A Y93H
[8] = Hepatitis C virus, HCV replicon 1B
[9] = Hepatitis C virus, read-out: 1A Q30D IC50, HCV replicon 1A Q30D
[10] = HCV replicon 2B, read-out: 2B IC50
[11] = HCV replicon 1A Y93H, read-out: 1A Y93H IC50
[12] = HCV replicon 1A Q30D, read-out: 1A Q30D IC50
[13] = read-out: 1A Y93H IC50, replicon 1AY93H
[14] = read-out: 1A Q30D IC50, replicon 1AQ30D
[15] = Hepatitis C virus, read-out: 1A Q30D IC50 (nM), replicon 1AQ30D
[16] = Hepatitis C virus, read-out: 2B IC50 (nM), replicon 2B
[17] = Hepatitis C virus, read-out: 1A Y93H IC50 (nM), replicon 1AY93H

## COC(=O)N[C@H](C(=O)N1CCC[C@H]1c1ncc(-c2cc(C)c3c(c2)OC(c2cc4c(s2)CCC4)n2c-3cc3cc(-c4cnc([C@@H]5CCCN5C(=O)[C@@H](NC(=O)OC)C5C[C@@H](C)O[C@@H](C)C5)[nH]4)ccc32)[nH]1)C(C)C (single isomer, unassigned) [Compound 548]
[1]; [6]
  IC50: 0.0231 nM
[2]; HCV replicon 1A
  IC50: 0.00758 nM
[3]; [7]
  IC50: 0.0658 nM
[4]; [8]
  IC50: 0.00968 nM
[5]; [9]
  IC50: 1.4 nM

## COC(=O)N[C@H](C(=O)N1CCC[C@H]1c1ncc(-c2cc(F)c3c(c2)OC(c2ccc(CC(C)(C)OC)s2)n2c-3cc3cc(-c4cnc([C@@H]5CCCN5C(=O)[C@@H](NC(=O)OC)C(C)C)[nH]4)ccc32)[nH]1)C(C)C (single isomer, unassigned) [Compound 844]
[1]; [10]
  IC50: 0.213 nM
[2]; HCV replicon 1A
  IC50: 0.0022 nM
[3]; [11]
  IC50: 0.023 nM
[4]; HCV replicon 1B
  IC50: 0.0026 nM
[5]; [12]
  IC50: 0.239 nM

## COC(=O)N[C@H](C(=O)N1C2CC2C[C@H]1c1ncc(-c2cc(F)c3c(c2)OC(c2ccc(C4CC4)s2)n2c-3cc3cc(-c4cnc([C@@H]5CCCN5C(=O)[C@@H](NC(=O)OC)C5C[C@@H](C)O[C@@H](C)C5)[nH]4)ccc32)[nH]1)C(C)C (single isomer, unassigned) [Compound 554]
[1]; [6]
  IC50: 0.203 nM
[2]; HCV replicon 1A
  IC50: 0.0268 nM
[3]; [7]
  IC50: 0.237 nM
[4]; HCV replicon 1B
  IC50: 0.0226 nM
[5]; read-out: 1A Q30D IC50, HCV replicon 1A Q30D
  IC50: 1.67 nM

## CCCc1ccc(C2Oc3cc(-c4cnc([C@@H]5CCCN5C(=O)[C@@H](NC(=O)OC)C(C)C)[nH]4)cc(F)c3-c3cc4cc(-c5cnc([C@@H]6CCCN6C(=O)C(NC(=O)OC)C6C[C@@H](C)O[C@@H](C)C6)[nH]5)ccc4n32)s1 (single isomer, unassigned) [Compound 370]
[1]; read-out: 2B IC50, replicon 2B
  IC50: 0.0066 nM
[2]; replicon 1A
  IC50: 0.0014 nM
[3]; [13]
  IC50: 0.0022 nM
[4]; replicon 1B
  IC50: 0.002 nM
[5]; [14]
  IC50: 0.0454 nM

## COCCc1ccc(C2Oc3cc(-c4cnc([C@@H]5CCCN5C(=O)[C@@H](NC(=O)OC)C(C)C)[nH]4)cc(F)c3-c3cc4cc(-c5cnc([C@@H]6CCCN6C(=O)[C@@H](NC(=O)OC)C(C)C)[nH]5)ccc4n32)s1 (single isomer, unassigned) [Compound 82]
[1]; replicon 2B, read-out: 2B IC50
  IC50: 0.15 nM
[2]; replicon 1A
  IC50: 0.0011 nM
[3]; replicon 1AY93H, read-out: 1A Y93H IC50
  IC50: 0.014 nM
[4]; replicon 1B
  IC50: 0.0013 nM
[5]; replicon 1AQ30D, read-out: 1A Q30D IC50
  IC50: 0.26 nM

## CCCc1ccc(C2Oc3cc(-c4cnc([C@@H]5CCCN5C(=O)[C@@H](NC(=O)OC)C(C)C)[nH]4)cc(F)c3-c3cc4cc(-c5cnc([C@@H]6CCCN6C(=O)C(NC(=O)OC)C6C[C@@H](C)O[C@@H](C)C6)[nH]5)ccc4n32)s1 (single isomer, unassigned) [Compound 369]
[1]; read-out: 2B IC50, replicon 2B
  IC50: 0.115 nM
[2]; Hepatitis C virus, replicon 1A
  IC50: 0.001 nM
[3]; [13]
  IC50: 0.0739 nM
[4]; Hepatitis C virus, replicon 1B
  IC50: 0.0018 nM
[5]; [14]
  IC50: 0.912 nM

## COC(=O)NC(C(=O)N1[C@@H]2C[C@@H]2C[C@H]1c1ncc(-c2ccc3c(c2)cc2n3C(c3ccc(C4CC4)s3)Oc3cc(-c4cnc([C@@H]5CCCN5C(=O)[C@@H](NC(=O)OC)C(C)C)[nH]4)cc(F)c3-2)[nH]1)C1CCOC(C)(C)C1 (single isomer, unassigned) [Compound 276]
[1]; read-out: 2B IC50, replicon 2B
  IC50: 0.005 nM
[2]; Hepatitis C virus, replicon 1A
  IC50: 0.0015 nM
[3]; [13]
  IC50: 0.001 nM
[4]; Hepatitis C virus, replicon 1B
  IC50: 0.0024 nM
[5]; [15]
  IC50: 0.018 nM

## COC(=O)N[C@H](C(=O)N1CCC[C@H]1c1ncc(-c2cc(F)c3c(c2)OC(c2ccc(CC(F)(F)F)s2)n2c-3cc3cc(-c4cnc([C@@H]5CCCN5C(=O)[C@@H](NC(=O)OC)C(C)C)[nH]4)ccc32)[nH]1)C(C)C (stereo partly shown) [Compound 125]
[1]; [16]
  IC50: 0.089 nM
[2]; Hepatitis C virus, replicon 1A
  IC50: 0.0023 nM
[3]; [17]
  IC50: 0.018 nM
[4]; Hepatitis C virus, replicon 1B
  IC50: 0.0013 nM
[5]; [15]
  IC50: 0.29 nM

## CCc1ccc(C2Oc3cc(-c4cnc(C5CCCN5C(=O)C(NC(=O)OC)C5C[C@@H](C)O[C@@H](C)C5)[nH]4)ccc3-c3cc4c(F)c(-c5cnc([C@@H]6CCCN6C(=O)[C@@H](NC(=O)OC)C(C)C)[nH]5)ccc4n32)s1 (single isomer, unassigned) [Compound 359]
[1]; read-out: 2B IC50, replicon 2B
  IC50: 0.0519 nM
[2]; replicon 1A
  IC50: 0.0036 nM
[3]; [13]
  IC50: 0.0826 nM
[4]; Hepatitis C virus, replicon 1B
  IC50: 0.0019 nM
[5]; [15]
  IC50: 0.848 nM

## COC(=O)NC(C(=O)N1CCC[C@H]1c1ncc(-c2ccc3c(c2)cc2n3C(c3ccc(C4CC4)s3)Oc3cc(-c4cnc([C@@H]5CCCN5C(=O)[C@@H](NC(=O)OC)C(C)C)[nH]4)cc(F)c3-2)[nH]1)C1CCO[C@H](C)C1 (single isomer, unassigned) [Compound 138]
[1]; read-out: 2B IC50, replicon 2B
  IC50: 0.061 nM
[2]; replicon 1A
  IC50: 0.0013 nM
[3]; [13]
  IC50: 0.019 nM
[4]; replicon 1B
  IC50: 0.0014 nM
[5]; [14]
  IC50: 0.67 nM

## COC(=O)NC(C(=O)N1CCC[C@H]1c1ncc(-c2ccc3c(c2)cc2n3C(c3ccc(C4CC4)s3)Oc3cc(-c4cnc([C@@H]5CCCN5C(=O)[C@@H](NC(=O)OC)C(C)C)[nH]4)cc(F)c3-2)[nH]1)C1CCCCO1 (single isomer, unassigned) [Compound 340]
[1]; read-out: 2B IC50, replicon 2B
  IC50: 0.0212 nM
[2]; Hepatitis C virus, replicon 1A
  IC50: 0.0011 nM
[3]; [13]
  IC50: 0.0207 nM
[4]; Hepatitis C virus, replicon 1B
  IC50: 0.0025 nM
[5]; [14]
  IC50: 0.2 nM

## COC(=O)N[C@H](C(=O)N1CCC[C@H]1c1nc(-c2cc(F)c3c(c2)OC(c2ccc(C)s2)n2c-3cc3cc(-c4cnc([C@@H]5CCCN5C(=O)[C@@H](NC(=O)OC)C5CCOCC5)[nH]4)ccc32)c[nH]1)C(C)C (stereo partly shown) [Compound 59]
[1]; read-out: 2B IC50, replicon 2B
  IC50: 0.007 nM
[2]; replicon 1A
  IC50: 0.0013 nM
[3]; [13]
  IC50: 0.004 nM
[4]; replicon 1B
  IC50: 0.0035 nM
[5]; [14]
  IC50: 0.018 nM

## COC(=O)NC(C(=O)N1CCC[C@H]1c1ncc(-c2ccc3c(c2)cc2n3C(c3cc4ccccc4s3)Oc3cc(-c4cnc([C@@H]5CCCN5C(=O)[C@@H](NC(=O)OC)C(C)C)[nH]4)cc(F)c3-2)[nH]1)C1C[C@@H](C)O[C@@H](C)C1 (single isomer, unassigned) [Compound 640]
[1]; [6]
  IC50: 0.0253 nM
[2]; Hepatitis C virus, HCV replicon 1A
  IC50: 0.0019 nM
[3]; [7]
  IC50: 0.0106 nM
[4]; [8]
  IC50: 0.0011 nM
[5]; [9]
  IC50: 0.271 nM

## CCc1ccc(C2Oc3cc(-c4cnc([C@@H]5CCCN5C(=O)[C@@H](NC(=O)OC)C(C)C)[nH]4)cc(F)c3-c3cc4cc(-c5cnc([C@@H]6CCCN6C(=O)[C@H](NC(=O)OC)C6COCC(C)(C)C6)[nH]5)ccc4n32)s1 (stereo partly shown) [Compound 150]
[1]; [16]
  IC50: 0.007 nM
[2]; Hepatitis C virus, replicon 1A
  IC50: 0.0024 nM
[3]; [17]
  IC50: 0.004 nM
[4]; Hepatitis C virus, replicon 1B
  IC50: 0.0019 nM
[5]; [15]
  IC50: 0.094 nM

## COC(=O)N[C@H](C(=O)N1CCC[C@H]1c1ncc(-c2cc(F)c3c(c2)OC(c2ccc(C#N)s2)n2c-3cc3cc(-c4cnc([C@@H]5CCCN5C(=O)[C@@H](NC(=O)OC)C(C)C)[nH]4)ccc32)[nH]1)C(C)C (single isomer, unassigned) [Compound 17]
[1]; read-out: 2B IC50, replicon 2B
  IC50: 0.54 nM
[2]; Hepatitis C virus, replicon 1A
  IC50: 0.0026 nM
[3]; [13]
  IC50: 0.19 nM
[4]; Hepatitis C virus, replicon 1B
  IC50: 0.0021 nM
[5]; [14]
  IC50: 2.91 nM

## COC(=O)NC(C(=O)N1CCC[C@H]1c1ncc(-c2ccc3c(c2)cc2n3C(c3ccc(C4CC4)s3)Oc3cc(-c4cnc([C@@H]5CCCN5C(=O)[C@@H](NC(=O)OC)C(C)C)[nH]4)cc(F)c3-2)[nH]1)C1CCO[C@H](C)C1 (single isomer, unassigned) [Compound 135]
[1]; read-out: 2B IC50, replicon 2B
  IC50: 0.006 nM
[2]; replicon 1A
  IC50: 0.0024 nM
[3]; [13]
  IC50: 0.004 nM
[4]; replicon 1B
  IC50: 0.003 nM
[5]; [14]
  IC50: 0.027 nM

## COC(=O)NC(C(=O)N1CCC[C@H]1c1ncc(-c2ccc3c(c2)cc2n3C(c3ccc(C(F)(F)F)s3)Oc3cc(-c4cnc([C@@H]5CCCN5C(=O)[C@@H](NC(=O)OC)C(C)C)[nH]4)cc(F)c3-2)[nH]1)C1C[C@@H](C)O[C@@H](C)C1 (single isomer, unassigned) [Compound 649]
[1]; [10]
  IC50: 0.253 nM
[2]; HCV replicon 1A
  IC50: 0.002 nM
[3]; [11]
  IC50: 0.24 nM
[4]; HCV replicon 1B
  IC50: 0.0012 nM
[5]; [12]
  IC50: 0.41 nM
